Results reported in ChEMBL document CHEMBL4431321, “Profiling of Flavonol Derivatives for the Development of Antitrypanosomatidic Drugs” (J Med Chem, 2016).
Calls of active or inactive are those of the source. The calls are words filed in the database; no cut-off is given here.

How the values were obtained:
[1] = test system: Trypanosoma brucei brucei; assay: Antitrypanosomal activity against Trypanosoma brucei brucei Lister 427 bloodstream forms after 72 hrs by resazurin-based assay; format: functional, organism-based; conditions: Lister 427, 72 h
[2] = molecular target: T1, Cytochrome P450 1A2 (Homo sapiens, UniProt P05177); assay: Inhibition of human microsomal CYP1A2 expressed in baculovirus infected BTI-TN-5B1-4 cells at 10 uM incubated for 30 mins by luciferase assay; format: ADME; conditions: bti-tn-5b1-4, 0.5 h, 10 µM
T1 sequence (P05177 whole entry): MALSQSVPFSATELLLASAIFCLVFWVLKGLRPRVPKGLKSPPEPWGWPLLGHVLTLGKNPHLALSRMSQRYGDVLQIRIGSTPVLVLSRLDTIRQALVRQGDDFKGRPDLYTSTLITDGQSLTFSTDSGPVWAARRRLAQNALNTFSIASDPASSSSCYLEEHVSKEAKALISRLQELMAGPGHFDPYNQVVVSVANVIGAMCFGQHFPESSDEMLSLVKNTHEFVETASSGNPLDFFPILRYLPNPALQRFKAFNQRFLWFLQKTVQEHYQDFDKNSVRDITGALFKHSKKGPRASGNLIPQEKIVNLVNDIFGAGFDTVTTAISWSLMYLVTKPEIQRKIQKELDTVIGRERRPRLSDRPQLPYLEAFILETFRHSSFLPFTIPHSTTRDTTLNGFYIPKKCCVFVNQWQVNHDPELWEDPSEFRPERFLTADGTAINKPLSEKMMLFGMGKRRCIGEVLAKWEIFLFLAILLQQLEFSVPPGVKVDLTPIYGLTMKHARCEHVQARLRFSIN

[3] = test system: A549; assay: Cytotoxicity against human A549 cells at 100 uM after 48 hrs by cell titer glo assay; format: cell-based; conditions: a549, 48 h
[4] = Cytotoxicity against human THP1 cells after 72 hrs by MTT assay; format: cell-based; conditions: THP-1 cells; for MNTC at 72 h: read-out: NOAEL
[5] = test system: WI-38; assay: Cytotoxicity against human WI38 cells at 100 uM after 48 hrs by cell titer glo assay; format: cell-based; conditions: wi-38, 48 h
[6] = test system: 786-0; assay: Mitochondrial toxicity in human 786-O cells incubated for 6 hrs by mitotracker red staining based-uptake method; format: cell-based; conditions: 786-0, 6 h
[7] = in vitro; conditions: human, THP-1 cells
Description: Selectivity index, ratio of CC50 for human THP1 cells to EC50 for Trypanosoma brucei brucei Lister 427 bloodstream forms

[8] = test system: Trypanosoma brucei brucei; assay: Antitrypanosomal activity against Trypanosoma brucei brucei Lister 427 bloodstream forms at 10 uM after 72 hrs by resazurin-based assay; format: functional, organism-based
[9] = (§1) Inhibition of Trypanosoma brucei PTR1 using H2B as substrate incubated for 10 mins followed by addition of NADPH measured for 10 to 50 mins
[10] = test system: Leishmania mexicana; assay: Inhibition of Leishmania mexicana DHFR at 50 uM using folic aid as substrate by spectrophotometric analysis
[11] = molecular target: Thymidylate synthase (Homo sapiens) (UniProt P04818); assay: Inhibition of human thymidylate synthase at 50 uM using folic aid as substrate by spectrophotometric analysis
[12] = test system: Trypanosoma brucei; assay: Inhibition of Trypanosoma brucei DHFR at 50 uM using folic aid as substrate by spectrophotometric analysis
[13] = molecular target: T2, Dihydrofolate reductase (Homo sapiens) (UniProt P00374); assay: Inhibition of human DHFR at 50 uM using folic aid as substrate by spectrophotometric analysis
T2 sequence (whole entry): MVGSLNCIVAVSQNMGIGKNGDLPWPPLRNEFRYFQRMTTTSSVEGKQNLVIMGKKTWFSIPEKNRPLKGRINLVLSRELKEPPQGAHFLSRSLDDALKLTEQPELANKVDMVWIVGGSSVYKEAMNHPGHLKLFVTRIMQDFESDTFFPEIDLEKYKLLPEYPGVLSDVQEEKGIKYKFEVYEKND

[14] = test system: Trypanosoma brucei; assay: Inhibition of Trypanosoma brucei PTR1 at 50 uM using H2B as substrate incubated for 10 mins followed by addition of NADPH measured for 10 to 50 mins
[15] = test system: Trypanosoma brucei brucei; assay: Antitrypanosomal activity against Trypanosoma brucei brucei Lister 427 bloodstream forms assessed as synergy coefficient at 1.25 to 5 uM after 72 hrs in presence of MTX by resazurin-based assay; format: functional
[16] = test system: Trypanosoma brucei; assay: as §1
[17] = test system: Leishmania mexicana; assay: Inhibition of Leishmania mexicana PTR1 at 50 uM using H2B as substrate incubated for 10 mins followed by addition of NADPH measured for 10 to 50 mins

Thymidylate synthase (Homo sapiens), sequence (P04818 2-313 limits assumed): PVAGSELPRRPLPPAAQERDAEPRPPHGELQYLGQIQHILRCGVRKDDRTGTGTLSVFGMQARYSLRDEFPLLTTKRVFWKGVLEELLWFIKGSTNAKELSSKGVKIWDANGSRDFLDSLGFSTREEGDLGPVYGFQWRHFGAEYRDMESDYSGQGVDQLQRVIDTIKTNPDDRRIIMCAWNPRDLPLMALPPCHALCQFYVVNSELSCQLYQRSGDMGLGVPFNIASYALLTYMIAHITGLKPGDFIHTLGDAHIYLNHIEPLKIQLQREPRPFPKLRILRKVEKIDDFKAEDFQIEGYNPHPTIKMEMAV

COc1ccc(/C=C/C(=O)O)cc1O [ISOFERULIC ACID]
IC50 [1]: < 30 µM

COc1ccc2c(=O)c(O)c(-c3ccc(OC)c(OC)c3)oc2c1
inhibition (INH) [2]: Not Active
Activity [3]: Non-Toxic
MNTC at 72 h [4]: 25 µM
Activity [5]: Non-Toxic
Activity [6]: Non-Toxic
selectivity ratio [7]: 8
Activity [8]: Active

O=c1c(O)c(-c2ccc(O)cc2)oc2cc(O)cc(O)c12 [KAEMPFEROL]
IC50 [9]: 28 µM
IC50 [1]: 9 µM

O=C(O)/C=C/c1ccccc1O [O-COUMARIC ACID]
IC50 [1]: < 30 µM

COc1cc(O)c2c(=O)cc(-c3ccccc3)oc2c1 [TECHTOCHRYSIN]
IC50 [1]: < 30 µM

O=c1c(O)c(-c2ccccc2)oc2ccccc12 [FLAVONOL]
IC50 [9]: 12.8 µM
IC50 [1]: 9.1 µM

C[C@H]1O[C@@H](O[C@@H]2[C@H](Oc3cc(O)c4c(c3)OC(c3ccc(O)cc3)CC4=O)O[C@@H](CO)[C@H](O)[C@H]2O)[C@@H](O)[C@@H](O)[C@@H]1O (some centres not stated)
IC50 [1]: < 30 µM

O=c1c(O)c(-c2ccccc2O)oc2cc(O)cc(O)c12 [DATISCETIN]
IC50 [9]: 76.9 µM
IC50 [1]: 27 µM

O=C(O)/C=C/c1ccc(O)c(O)c1 [CAFFEIC ACID]
IC50 [1]: < 30 µM

Oc1cc(O)c2c(c1)O[C@H](c1ccc(O)c(O)c1)[C@@H](O)C2 [CIANIDANOL]
IC50 [1]: < 30 µM

O=c1c(O)c(-c2ccc(O)cc2)oc2ccc(O)cc12
inhibition [10]: < 25%
inhibition [11]: inactive
inhibition (INH) [2]: Not Active
EC50 [1]: 2.32 µM
Activity [3]: Non-Toxic
MNTC at 72 h [4]: 20 µM
Activity [5]: Non-Toxic
Activity [6]: Non-Toxic
inhibition [12]: < 25%
inhibition [13]: < 30%
inhibition [14]: 3%
CI [15]: >1.5
selectivity ratio [7]: 7
Activity [8]: Active

COc1ccc([C@H]2CC(=O)c3c(O)cc(O[C@@H]4O[C@H](CO)[C@@H](O)[C@H](O)[C@H]4O[C@@H]4O[C@@H](C)[C@H](O)[C@@H](O)[C@H]4O)cc3O2)cc1O
IC50 [1]: < 30 µM

O=c1c(O)c(-c2ccc(O)c(O)c2)oc2cc(O)cc(O)c12
inhibition [16]: inactive
IC50 [1]: < 30 µM

CC1(C(=O)O)CCC2(C)CCC3(C)C(=CC(=O)C4C5(C)CCC(OC6OC(C(=O)O)C(O)C(O)C6OC6OC(C(=O)O)C(O)C(O)C6O)C(C)(C)C5CCC43C)C2C1 (configuration not stated)
IC50 [1]: < 30 µM

O=c1cc(-c2ccccc2)oc2ccccc12 [FLAVONE]
IC50 [1]: < 30 µM

Cc1cc(O)c2c(c1)C(=O)c1cc(O)cc(O)c1C2=O [EMODIN]
IC50 [1]: < 30 µM

O=c1cc(-c2ccccc2)oc2cc(O)cc(O)c12 [CHRYSIN]
IC50 [1]: < 30 µM

O=C(O)/C=C/c1ccc(O)cc1 [COUMARIC ACID]
IC50 [1]: < 30 µM

COc1cccc(-c2oc3ccccc3c(=O)c2O)c1
inhibition (INH) [2]: Not Active
Activity [3]: Non-Toxic
inhibition [17]: inactive
MNTC at 72 h [4]: 10 µM
Activity [5]: Non-Toxic
Activity [6]: Non-Toxic
inhibition [14]: inactive
selectivity ratio [7]: 4
Activity [8]: Active

O=C(O)c1cc(O)c(O)c(O)c1 [GALLIC ACID]
IC50 [1]: < 30 µM

COc1cccc(-c2oc3cc(OC)ccc3c(=O)c2O)c1
inhibition (INH) [2]: Not Active
Activity [3]: Non-Toxic
MNTC at 72 h [4]: 10 µM
Activity [5]: Non-Toxic
Activity [6]: Non-Toxic
selectivity ratio [7]: 8
Activity [8]: Active

COc1cc(-c2cc(=O)c3c(O)cc(O)cc3o2)ccc1O [CHRYSOERIOL]
IC50 [1]: < 30 µM

COc1cccc(-c2oc3ccc(OC)cc3c(=O)c2O)c1
inhibition (INH) [2]: Not Active
Activity [3]: Non-Toxic
inhibition [17]: inactive
MNTC at 72 h [4]: 10 µM
Activity [5]: Non-Toxic
Activity [6]: Non-Toxic
inhibition [14]: 4%
CI [15]: >1
selectivity ratio [7]: 7
Activity [8]: Active

COc1ccc(-c2oc3cc(OC)ccc3c(=O)c2O)cc1
inhibition (INH) [2]: Not Active
Activity [3]: Non-Toxic
MNTC at 72 h [4]: 10 µM
Activity [5]: Non-Toxic
Activity [6]: Non-Toxic
selectivity ratio [7]: 9
Activity [8]: Active

O=c1cc(-c2ccc(O)c(O)c2)oc2cc(O)cc(O)c12 [LUTEOLIN]
IC50 [1]: < 30 µM

Oc1cc(O)c2c(c1)O[C@H](c1ccc(O)c(O)c1)[C@H](O)C2 [(-)-EPICATECHIN]
IC50 [1]: < 30 µM

O=c1cc(-c2ccccc2)oc2cccc(O)c12 [5-HYDROXYFLAVONE]
IC50 [1]: < 30 µM

COc1cc(-c2oc3cc(O)cc(O)c3c(=O)c2O)ccc1O [ISORHAMNETIN]
IC50 [9]: 13.9 µM
IC50 [1]: 11.2 µM

O=c1c(O)c(-c2ccc(O)c(O)c2)oc2ccc(O)cc12
inhibition [10]: < 25%
inhibition [11]: inactive
inhibition (INH) [2]: Not Active
EC50 [1]: 1.36 µM
Activity [3]: Non-Toxic
MNTC at 72 h [4]: 10 µM
Activity [5]: Non-Toxic
Activity [6]: Non-Toxic
inhibition [12]: < 25%
inhibition [13]: < 30%
selectivity ratio [7]: 6
Activity [8]: Active

COc1ccc2oc(-c3ccc(OC)c(OC)c3)c(O)c(=O)c2c1
inhibition (INH) [2]: Not Active
Activity [3]: Non-Toxic
MNTC at 72 h [4]: 10 µM
Activity [5]: Non-Toxic
Activity [6]: Non-Toxic
CI [15]: >1
selectivity ratio [7]: 5
Activity [8]: Active

COc1cc(OC)c2c(=O)cc(-c3ccccc3)oc2c1 [CHRYSIN DIMETHYL ETHER]
IC50 [1]: < 30 µM

O=C1c2c(O)cccc2C(C2OC(CO)C(O)C(O)C2O)c2cc(CO)cc(O)c21 (configuration not stated)
IC50 [1]: < 30 µM

N=C(N)c1ccc(OCCCCCOc2ccc(C(=N)N)cc2)cc1 [PENTAMIDINE]
MNTC at 72 h [4]: 10 µM
selectivity ratio [7]: 6440

COc1ccc([C@@H]2CC(=O)c3c(O)cc(O)cc3O2)cc1O [HESPERETIN]
IC50 [1]: < 30 µM

O=c1c(O)c(-c2cccc(O)c2)oc2ccccc12
inhibition [10]: 42 to 43%
inhibition [11]: inactive
inhibition (INH) [2]: Not Active
EC50 [1]: 5.18 µM
Activity [3]: Non-Toxic
inhibition [17]: 35%
MNTC at 72 h [4]: 20 µM
Activity [5]: Non-Toxic
Activity [6]: Non-Toxic
inhibition [12]: 42 to 43%
inhibition [13]: < 30%
inhibition [14]: 35%
selectivity ratio [7]: 4
Activity [8]: Active

O=C1CC(c2ccc(O)cc2)Oc2cc(O)cc(O)c21 (configuration not stated)
IC50 [1]: < 30 µM

O=C(O)/C=C/c1cccc(O)c1
IC50 [1]: < 30 µM

O=C(/C=C/c1ccc(O)c(O)c1)O[C@@H]1C[C@](O)(C(=O)O)C[C@@H](O)[C@H]1O [CHLOROGENIC ACID]
IC50 [1]: < 30 µM

COc1cccc(/C=C/C(=O)O)c1
IC50 [1]: < 30 µM

COc1ccc([C@H]2CC(=O)c3c(O)cc(O[C@@H]4O[C@H](CO[C@@H]5O[C@@H](C)[C@H](O)[C@@H](O)[C@H]5O)[C@@H](O)[C@H](O)[C@H]4O)cc3O2)cc1O
IC50 [1]: < 30 µM

O=c1cc(-c2ccc(O)c(O)c2)oc2cc(O[C@@H]3O[C@@H](CO)[C@H](O)[C@@H](O)[C@@H]3O)cc(O)c12
IC50 [1]: < 30 µM

O=c1c(O)c(-c2cccc(O)c2)oc2cc(O)ccc12
inhibition [10]: < 25%
inhibition [11]: inactive
inhibition (INH) [2]: Not Active
EC50 [1]: 12.3 µM
Activity [3]: Non-Toxic
CC50 at 72 h [4]: 80 µM
Activity [5]: Non-Toxic
Activity [6]: Non-Toxic
inhibition [12]: < 25%
inhibition [13]: < 30%
inhibition [14]: 47%
CI [15]: >1
selectivity ratio [7]: 6
Activity [8]: Active

COc1cc(/C=C/C(=O)O)ccc1O [FERULATE]
IC50 [1]: < 30 µM

O=c1oc2c(O)c(O)cc3c(=O)oc4c(O)c(O)cc1c4c23
IC50 [1]: < 30 µM
